Measured values from patent US20070203118A1, “SUBSTITUTED TETRAHYDROISOQUINOLINES USED IN THE FORM OF MMP INHIBITORS, METHOD FOR THE PRODUCTION AND USE THEREOF IN THE FORM OF DRUGS” (SANOFI-AVENTIS DEUTSCHLAND GMBH, priority 2004, published 2007).

Assays:
[1] = target: T1, catalytic domain of human collagenase-1 (MMP-1) (Homo sapiens, UniProt P03956); assay: Enzymatic activity of the catalytic domain of human collagenase-1 (MMP-1), fluorogenic substrate; type: biochemical
T1 construct: Determination of the Enzymatic Activity of the Catalytic Domain of Human Collagenase-1 (MMP-1); purchased Biocol, Potsdam MMP1
T1 sequence (P03956 100-269 limits assumed): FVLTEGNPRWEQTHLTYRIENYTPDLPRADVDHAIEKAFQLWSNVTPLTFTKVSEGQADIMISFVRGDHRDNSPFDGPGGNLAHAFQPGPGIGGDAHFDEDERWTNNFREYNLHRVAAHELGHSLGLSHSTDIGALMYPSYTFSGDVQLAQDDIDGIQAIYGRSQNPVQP
Procedure: Determination of the Enzymatic Activity of the Catalytic Domain of Human Collagenase-1 (MMP-1)
Activation of the Pro enzyme: 2 parts by volume of Pro enzyme are incubated with 1 part by volume of APMA solution at 37° C. for 1 hour. The APMA solution is prepared from a 10 mmol/l p-aminophenylmercuric acetate solution in 0.1 mmol/l NaOH by dilution with 3 parts by volume of tris/HCl buffer pH7.5 (see below). The pH is adjusted to between 7.0 and 7.5 by adding 1 mmol/l HCl. After activation of the enzyme, it is diluted with the tris/HCl buffer to a concentration of 2.5 μg/ml.
(§1) The enzymic activity is measured by incubating 10 μl of enzyme solution with 10 μl of a 3% strength (v/v) buffered dimethyl sulfoxide solution (reaction 1) for 15 minutes. The enzyme inhibitor activity is measured by incubating 10 μl of enzyme solution with 10 μl of a 3% strength (v/v) buffered dimethyl sulfoxide solution which contains the enzyme inhibitor (reaction 2).
The enzymic reaction both in the case of reaction 1 and in the case of reaction 2 is followed after addition of 10 μl of a 3% strength (v/v) aqueous dimethyl sulfoxide solution which contains 0.3 mmol/l of the substrate by fluorescence spectroscopy (328 nm (extinction)/393 nm (emission)), and the enzymic activity is presented as increase in extinction per minute.
The effect of the inhibitor is calculated as percentage inhibition by the following formula: % inhibition=100−[(increase in extinction/minute in reaction 2)/increase in extinction/minute in reaction 1)×100].
The IC50, i.e. the inhibitor concentration necessary for 50% inhibition of the enzymic activity, is determined graphically by plotting the percentage inhibitions at various inhibitor concentrations.
The buffer solution contains 0.05% Brij (Sigma, Deisenhofen, Germany) and 0.1 mol/l tris/HCl, 0.1 mol/l NaCl, 0.01 mol/l CaCl2 (pH=7.5).
The enzyme solution contains 2.5 μg/ml of the enzyme domain.
The substrate solution contains 0.3 mmol/l of the fluorogenic substrate (7-methoxycoumarin-4-yl)acetyl-Pro-Leu-Gly-Leu-3-(2′,4′-dinitrophenyl)-L-2,3-diaminopropionyl-Ala-Arg-NH2 (Bachem, Heidelberg, Germany).

[2] = target: T2, catalytic domain of human gelatinase-A (MMP-2) (Homo sapiens, UniProt P08253); assay: Enzymatic activity of the catalytic domain of human gelatinase-A (MMP-2), fluorogenic substrate; type: biochemical
T2 construct: Determination of the Enzymatic Activity of the Catalytic Domain of Human Gelatinase-A (MMP-2); purchased INVITEK, Berlin
T2 sequence (P08253 110-660): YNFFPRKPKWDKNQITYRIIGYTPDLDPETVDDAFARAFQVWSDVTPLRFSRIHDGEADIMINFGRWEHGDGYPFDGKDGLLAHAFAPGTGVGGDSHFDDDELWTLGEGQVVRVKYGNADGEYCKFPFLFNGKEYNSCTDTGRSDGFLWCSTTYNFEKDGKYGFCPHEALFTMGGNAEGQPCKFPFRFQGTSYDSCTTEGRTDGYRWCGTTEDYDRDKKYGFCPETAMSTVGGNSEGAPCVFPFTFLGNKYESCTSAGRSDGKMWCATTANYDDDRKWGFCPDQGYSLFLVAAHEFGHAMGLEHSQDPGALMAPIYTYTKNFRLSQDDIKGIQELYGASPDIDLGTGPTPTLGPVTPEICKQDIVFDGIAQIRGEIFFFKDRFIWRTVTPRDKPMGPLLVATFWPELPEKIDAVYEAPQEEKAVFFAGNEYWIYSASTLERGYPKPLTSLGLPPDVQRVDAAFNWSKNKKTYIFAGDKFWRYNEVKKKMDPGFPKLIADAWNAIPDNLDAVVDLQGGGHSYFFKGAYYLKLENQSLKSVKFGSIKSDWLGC
Procedure: Determination of the Enzymatic Activity of the Catalytic Domain of Human Gelatinase-A (MMP-2)
Activation of the proenzyme: 2 parts by volume of proenzyme were incubated with 1 part by volume of APMA solution at 37° C. for 0.5 hours. The APMA solution was prepared from a 10 mmol/l p-aminophenylmercuric acetate solution in 0.1 mmol/l NaOH by dilution with 3 parts by volume of Tris/HCl buffer pH 7.5 (see below). The pH was adjusted to between 7.0 and 7.5 by adding 1 mmol/l HCl. After activation of the enzyme it was diluted with the Tris/HCl buffer to a concentration of 0.83 μg/ml.
as §1, with “was” for “is”, “contained” for “contains”
The enzymic reaction both in the case of reaction 1 and in the case of reaction 2 was followed after addition of 10 μl of a 3% strength (v/v) aqueous dimethyl sulfoxide solution which contained 0.3 mmol/l of the substrate by fluorescence spectroscopy (328 nm (extinction)/393 nm (emission)).
The enzymic activity has been presented as increase in extinction/minute.
The effect of the inhibitor was calculated as percentage inhibition by the following formula: % inhibition=100−[(increase in extinction/minute in reaction 2)/(increase in extinction/minute in reaction 1)×100].
The IC50, which is the concentration of inhibitor which is necessary for 50% inhibition of the enzymic activity, was determined graphically by plotting the percentage inhibitions at various inhibitor concentrations.
The buffer solution contained 0.05% Brij (Sigma, Deisenhofen, Germany) and 0.1 mol/l Tris/HCl, 0.1 mol/l NaCl, 0.01 mol/l CaCl2 (pH=7.5). The enzyme solution contained […] of the enzyme domain. The substrate solution contained 0.3 mmol/l of the fluorogenic substrate (7-methoxycoumarin-4-yl)acetyl-Pro-Leu-Gly-Leu-3-(2′,4′-dinitrophenyl)-L-2,3-diaminopropionyl-Ala-Arg-NH2 (Bachem, Heidelberg, Germany).

IC50 [1] [µM] | IC50 [2] [µM] | Molecule
1 | 0.0022 | O=C(NO)[C@H]1c2ccccc2CCN1S(=O)(=O)c1ccc(Oc2ccc(C(F)(F)F)cc2)cc1 [Compound 21, (R)-2-[4-(4-trifluoromethylphenoxy)benzenesulfonyl]-1,2,3,4-tetrahydro-isoquinoline-1-hydroxycarboxamide]
4 | 0.0045 | COc1ccc(F)c2c1[C@H](C(=O)NO)N(S(=O)(=O)c1ccc(-c3ccc(Cl)cc3)cc1)CC2 [Compound 18]
0.3 | 0.001 | COc1cc2c(cc1OC)[C@@H](C(=O)NO)N(S(=O)(=O)c1ccc(-c3ccc(Cl)cc3)cc1)CC2 [Compound 15]
0.5 | 0.0023 | O=C(NO)[C@H]1c2ccccc2CCN1S(=O)(=O)c1ccc(Oc2ccncc2)cc1 [Compound 11]
0.3 | 0.002 | 2-{2-[4-(4-fluorophenoxy)phenyl]ethanesulfonyl}-1,2,3,4-tetrahydroisoquinoline-1-hydroxycarboxamide [Compound 20]
0.089 | 0.002 | (R)-4-(1-hydroxycarbamoyl-3,4-dihydro-1H-isoquinoline-2-sulfonyl)phenyl benzoate [Compound 48]
> 10 | 0.023 | O=C(NO)[C@H]1c2ccccc2CCN1S(=O)(=O)c1ccc(Oc2ccc(OC(F)(F)F)cc2)nc1 [Compound 43, (R)-2-[6-(4-trifluoromethoxyphenoxy)pyridine-3-sulfonyl]-1,2,3,4-tetrahydro-isoquinoline-1-hydroxycarboxamide]
1.6 | 0.025 | O=C(NO)[C@H]1c2ccccc2CCN1S(=O)(=O)c1ccc(Oc2ccc(OCC(F)(F)F)cc2)cc1 [Compound 22]
0.042 | 0.002 | O=C(NO)[C@H]1c2ccccc2CCN1S(=O)(=O)c1ccc(Oc2ccc(Cl)cc2)cc1 [Compound 9]

Molecule | IC50 [1] [µM] | IC50 [2] [µM]
O=C(NO)[C@H]1c2ccccc2CCN1S(=O)(=O)c1ccc(Oc2ccc(Cl)cc2)nc1 [Compound 45, (R)-2-[6-(4-chlorophenoxy)pyridine-3-sulfonyl]-1,2,3,4-tetrahydroisoquinoline-1-hydroxycarboxamide] | 2 | 0.002
